Reference: patent US20140220058A1, “VACCINE COMPOSITION FOR TRANSDERMAL OR MUCOSAL ADMINISTRATION” (NITTO DENKO CORPORATION, priority 2013, published 2014)
“Also recorded” adds a separate entry of the source.

Columns and labels:
IFN-γ producing cells [1] = assay: Promotion of immunity induction using a mucosal vaccine (conclusion from Tables 4, 5 and 6); assay type: in vivo, mouse; details: acid as component of sublingual liquid formulations
IFN-γ producing cells [2] = assay: Promotion of immunity induction via transdermal immunization (conclusion from Tables 1, 2, 3, 8 and 10); assay type: in vivo, mouse; details: acid as component of tape, liquid or cream formulations

Compound	promotion of immunity induction using a mucosal vaccine (in words) (IFN-γ producing cells [1])	promotion of immunity induction via transdermal immunization (in words) (IFN-γ producing cells [2])
O=C(O)CC(O)(CC(=O)O)C(=O)O [citric acid]	suitable; also recorded: particularly preferable	
CCCCCCCCCC(=O)O [decanoic acid]		suitable; also recorded: particularly preferable
CC(C)CCCCCCCCCCCCCCC(=O)O [isostearic acid]	suitable; also recorded: particularly preferable	suitable; also recorded: preferable
CC(O)C(=O)O (stereo not shown) [lactic acid]	suitable; also recorded: particularly preferable	suitable; also recorded: particularly preferable
CCCCCCCCCCCC(=O)O [lauric acid]		suitable; also recorded: particularly preferable
O=C(O)/C=C\C(=O)O [maleic acid]	suitable; also recorded: preferable	suitable; also recorded: preferable
O=C(O)CC(O)C(=O)O (stereo not shown) [malic acid]	suitable	suitable; also recorded: preferable
CS(=O)(=O)O [methanesulfonic acid]		suitable; also recorded: particularly preferable
CCCCCCCCCCCCCC(=O)O [myristic acid]	suitable; also recorded: particularly preferable	suitable; also recorded: particularly preferable
CCCCCCCC/C=C\CCCCCCCC(=O)O [oleic acid]		suitable; also recorded: preferable
CCCCCCCCCCCCCCCC(=O)O [palmitic acid]		suitable; also recorded: particularly preferable
O=C(O)c1ccccc1O [salicylic acid]	suitable	suitable; also recorded: particularly preferable
CCCCCCCCCCCCCCCCCC(=O)O [stearic acid]		suitable; also recorded: particularly preferable
